# Assay results taken from paper PMC10648349, “Aromatic Diboronic Acids as Effective KPC/AmpC Inhibitors” (Molecules, 2023).
# Assays:
# [1] = system: Gram-positive strains; experiment: direct antimicrobial activity, MIC; assay type: cell-based
# Description: (§1) Direct antimicrobial activity against Gram-negative and Gram-positive bacterial strains, as well as against yeast, was examined as previously described by the disc-diffusion test, the MIC determination assay, the MBC (for bacteria), and the MFC (for yeasts) determination tests. All the above-mentioned tests were performed according to EUCAST [71, 72] and CLSI [73, 74, 75, 76, 77] recommendations. The following reference agents were used: nitrofurantoin (for Gram-negative rods), linezolid (for Gram-positive bacteria), and fluconazole (in the case of fungi). The new aromatic diboronic acids were dissolved in DMSO (Sigma, St. Louis, MO, USA). In the disc-diffusion test, the concentration of new agents was 0.4 mg per disc. Depending on the solubility, the MIC and MBC/MFC values were determined up to 100 mg/L for 1k, up to 200 mg/L for 7c, and up to 400 mg/L for the remaining compounds: 1a–1j, 2a–2g, 3a–3f, 4a–4b, 5a–5c, 6a and 7a–7b.
# [2] = system: E. faecalis ATCC 29212; experiment: direct antimicrobial activity (disc-diffusion, MIC, MBC); assay type: cell-based; settings: Enterococcus faecalis, ATCC29212
# Outline: (§2)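 Diboronic acids (DMSO solutions) at 0.4 mg per disc were used for diffusion testing. Dilution endpoints were MIC, MBC and MFC, per CLSI and EUCAST recommendations.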
# [3] = system: S. epidermidis ATCC 12228; experiment: as above; assay type: cell-based; settings: Staphylococcus epidermidis, ATCC12228
# Outline: as §2
# [4] = system: S. aureus ATCC 43300 MRSA; experiment: as above; assay type: cell-based; settings: Staphylococcus aureus
# Outline: as §2
# [5] = system: S. aureus ATCC 6538P; experiment: as above; assay type: cell-based; settings: Staphylococcus aureus, ATCC6538P
# Outline: as §2
# [6] = system: E. faecium ATCC 6057; experiment: as above; assay type: cell-based; settings: Enterococcus faecium, ATCC6057
# Outline: as §2
# [7] = MTT-based viability assay; assay type: cell-based; settings: human, MRC-5 human fibroblasts, 72 h, read-out: Viability of MRC-5 cells (% of viable cells ± SD)
# Outline: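 Percent viable cells relative to control, measured in triplicate by MTT read-out at 570 nm. Cells: MRC-5 human fibroblasts cultured at 37 °C, 5% CO2 in MEME plus 10% FBS.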
# [8] = system: S. cerevisiae ATCC 9763; experiment: antifungal activity (disc-diffusion, MIC, MFC); assay type: cell-based; settings: Saccharomyces cerevisiae, ATCC9763
# Outline: as §2
# [9] = system: C. tropicalis ATCC 750; experiment: antifungal activity (disc-diffusion, MIC, MFC); assay type: cell-based; settings: Candida tropicalis, ATCC750
# Outline: as §2
# [10] = system: C. tropicalis IBA 171; experiment: antifungal activity (disc-diffusion, MIC, MFC); assay type: cell-based; settings: Candida tropicalis, IBA171
# Outline: as §2
# [11] = system: C. albicans ATCC 90028; experiment: antifungal activity (disc-diffusion, MIC, MFC); assay type: cell-based; settings: Candida albicans, ATCC90028
# Outline: as §2
# [12] = system: C. guilliermondii IBA 155; experiment: antifungal activity (disc-diffusion, MIC, MFC); assay type: cell-based, Candida guilliermondii; settings: Meyerozyma guilliermondii, IBA155
# Outline: as §2
# [13] = system: C. parapsilosis ATCC 22019; experiment: antifungal activity (disc-diffusion, MIC, MFC); assay type: cell-based, Candida parapsilosis; settings: Lodderomyces parapsilosis, ATCC22019
# Outline: as §2
# [14] = system: Gram-negative rods (except P. aeruginosa); experiment: direct antimicrobial activity, MIC; assay type: cell-based
# Description: as §1, with “disc.” for “disc. Depending on the solubility, the MIC and MBC/MFC values were determined up to 100 mg/L for 1k, up to 200 mg/L for 7c, and up to 400 mg/L for the remaining compounds: 1a–1j, 2a–2g, 3a–3f, 4a–4b, 5a–5c, 6a and 7a–7b.”
# [15] = system: P. aeruginosa MUW 700 AmpC(+); experiment: screening test of direct antimicrobial activity (STDA), disc-diffusion; assay type: cell-based; settings: Pseudomonas aeruginosa; 0.3 mg per disc; - no zone; read-out: Diameter of inhibition zone around disc with tested agent
# Description: (§3) Prior to combination disc tests, screening tests of direct antimicrobial activity (STDA) of the tested agent against β-lactamase-producing strains were performed by the disc-diffusion method. Discs with 0.3 mg, 0.1 mg, and 0.03 mg of each agent were examined. The highest amount of an agent that caused no effect on bacterial growth was used in further experiments.
# [16] = system: K. pneumoniae ATCC 700603 ESBL(+); experiment: as above; assay type: cell-based; settings: Klebsiella pneumoniae, ATCC700603; 0.3 mg per disc; - no zone; read-out: Diameter of inhibition zone around disc with tested agent
# Description: as §3
# [17] = system: B. subtilis ATCC 6633; experiment: direct antimicrobial activity (disc-diffusion); assay type: cell-based; settings: Bacillus subtilis, ATCC6633; 0.4 mg per disc, 9 mm disc (linezolid 0.03 mg, 6 mm disc); - no zone; read-out: Diameter of inhibition zone
# Description: as §1, with “disc.” for “disc. Depending on the solubility, the MIC and MBC/MFC values were determined up to 100 mg/L for 1k, up to 200 mg/L for 7c, and up to 400 mg/L for the remaining compounds: 1a–1j, 2a–2g, 3a–3f, 4a–4b, 5a–5c, 6a and 7a–7b.”
# [18] = system: C. krusei ATCC 6258; experiment: antifungal activity (disc-diffusion, MIC, MFC); assay type: cell-based, Candida krusei; settings: Pichia kudriavzevii, ATCC6258
# Outline: as §2
# [19] = system: CRE strains; settings: cited from earlier work
# [20] = system: K. pneumoniae ATCC BAA-1705 KPC-2-positive; experiment: checkerboard microdilution, antibiotic plus tested agent; assay type: cell-based, Klebsiella pneumoniae; settings: Klebsiella pneumoniae, ATCCBAA1705; read-out: MIC of meropenem alone
# Description: (§4) To examine the ability of tested agents to inhibit various carbapenemases and AmpC-enzymes, their synergy with antibiotics against β-lactamase-producing strains was assessed by checkerboard microdilution assay, with slight modification. Checkerboards were prepared in microtiter plates, with seven two-fold dilutions of β-lactams (1–64 mg/L) in the rows and three two-fold dilutions of tested agents and PBA (4–16 mg/L) in the columns. Tested agents’ concentrations were limited to the concentrations at which the newest commercially available BLIs (vaborbactam, relebactam, and avibactam) are used in susceptibility testing. Plates were inoculated and incubated as in the MIC microdilution assay. Parallel, MICs of tested agents and PBA alone were determined by the microdilution assay. Following the incubation, antibiotic MICs in the presence of each agent’s concentration were determined. Moreover, for the first well without growth found in each checkerboard row and column along the growth/non-growth interface, the fractional inhibitory concentration index (FICI) was calculated using the formula below:FICI = [(MIC of antibiotic in combination)/(MIC of antibiotic alone)] + [(MIC of the tested agent in combination)/(MIC of tested agent alone)].
# (§5) For calculations, all off-scale MICs were converted to the next-highest doubling concentration. Subsequently, both the average and the lowest FICI were interpreted. The interpretation was as follows: FICI ≤ 0.5, synergy; 0.5 < FICI ≤ 4, indifference and FICI > 4, antagonism. Primarily, examined combinations consisted of meropenem (Pol-Aura, Morag, Poland) plus tested agents against carbapenemases-producing strains and ceftazidime (Pol-Aura, Morag, Poland) plus tested agents against AmpC-producing strains. For agents that reduced meropenem MIC at least 4-fold for at least two tested strains, similar assays were performed with imipenem (Pol-Aura, Morag, Poland) and ertapenem (Pol-Aura, Morag, Poland).
# [21] = system: K. pneumoniae 83 KPC-3-positive, CTX-M-3-positive; experiment: as above; assay type: cell-based, Klebsiella pneumoniae; settings: Klebsiella pneumoniae; read-out: MIC of meropenem alone
# Description: as §4, §5
# [22] = system: K. pneumoniae 81 KPC-3-positive; experiment: as above; assay type: cell-based, Klebsiella pneumoniae; settings: Klebsiella pneumoniae; read-out: MIC of meropenem alone
# Description: as §4, §5
# [23] = system: P. aeruginosa 1204 VIM(+); experiment: as above; assay type: cell-based; settings: Pseudomonas aeruginosa; read-out: MIC of meropenem alone
# Description: as §4
# For calculations, all off-scale MICs were converted to the next-highest doubling concentration. […]
# [24] = system: E. coli 82 TR(pl 81), transformant carrying blaKPC-3; experiment: whole cell assay, meropenem MIC with tested agent; assay type: cell-based, Escherichia coli; settings: Escherichia coli, read-out: MIC of meropenem alone
# Description: as §4
# [25] = system: E. coli DH5α; experiment: whole cell assay, meropenem MIC with tested agent; assay type: cell-based, Escherichia coli; settings: Escherichia coli; read-out: MIC of meropenem alone
# Description: as §4
# [26] = system: K. pneumoniae ATCC BAA 1705 KPC-2-positive; experiment: combination disc test CDT-KPC; assay type: cell-based; settings: Klebsiella pneumoniae, BAA1705; meropenem 10 µg per disc, 6 mm disc; read-out: Diameter of inhibition zone, MEM-10 disc without agent
# [27] = system: E. coli 76 KPC-2-positive; experiment: checkerboard microdilution, antibiotic plus tested agent; assay type: cell-based, Escherichia coli; settings: Escherichia coli; read-out: MIC of meropenem alone
# Description: as §4, §5
# [28] = 0.4 mg per disc, 9 mm disc (linezolid 0.03 mg, 6 mm disc), - no zone, read-out: Diameter of inhibition zone
# [29] = 0.4 mg per disc, 9 mm disc (fluconazole 0.025 mg, 6 mm disc), - no zone, read-out: Diameter of inhibition zone
structure (smiles),measurement,setting,value
OB(O)c1cc(I)c(B(O)O)cc1I [1j],MIC,[1]; enterococci,100 to 400 µg/mL
same,MIC,[1]; staphylococci,12.5 to 50 µg/mL
same,MIC,[2],400 µg/mL
same,MIC,[3],50 µg/mL
same,zone of inhibition at 0.4 mg/disc,[3]; [28],25 mm
same,MIC,[4],50 µg/mL
same,zone of inhibition at 0.4 mg/disc,[4]; [28],21 mm
same,MIC,[5],50 µg/mL
same,zone of inhibition at 0.4 mg/disc,[5]; [28],19 mm
same,MIC,[6],400 µg/mL
same,"viability at 72 h, 12.5 mg/L",[7]; 12.5 mg/L,125 ± 2.8%
same,"viability at 72 h, 25 mg/L",[7]; 25 mg/L,117 ± 1.2%
same,"viability at 72 h, 50 mg/L",[7]; 50 mg/L,88.6 ± 3.5%
same,zone of inhibition at 0.4 mg/disc,[8]; [29],20 mm
same,MIC,[8]; fluconazole by Etest,> 400 µg/mL
same,zone of inhibition at 0.4 mg/disc,[9]; [29],17 mm
same,MIC,[9]; fluconazole by Etest,> 400 µg/mL
same,zone of inhibition at 0.4 mg/disc,[10]; [29],15 mm
same,MIC,[10]; fluconazole by Etest,> 400 µg/mL
same,zone of inhibition at 0.4 mg/disc,[11]; [29],24 mm
same,MIC,[11]; fluconazole by Etest,200 µg/mL
same,zone of inhibition at 0.4 mg/disc,[12]; [29],30 mm
same,MIC,[12]; fluconazole by Etest,400 µg/mL
same,zone of inhibition at 0.4 mg/disc,[13]; [29],15 mm
same,MIC,[13]; fluconazole by Etest,> 400 µg/mL
same,MIC,[14],50 to 400 µg/mL
same,zone of inhibition at 300 µg/disc,[15],14 mm
same,zone of inhibition at 300 µg/disc,[16],11 mm
same,zone of inhibition at 0.4 mg/disc,[17],20 mm
same,zone of inhibition at 0.4 mg/disc,[18]; [29],23 mm
same,MIC,[18]; fluconazole by Etest,400 µg/mL
O=C(O)c1c(F)ccc2c1OB(O)[C@@H]1C[C@H]21 [xeruborbactam],MIC,[19],16 µg/mL
"C[C@@H](O)[C@H]1C(=O)N2C(C(=O)O)=C(S[C@@H]3CN[C@H](C(=O)N(C)C)C3)[C@H](C)[C@H]12 [MEM, meropenem, reference compound]",MIC,[20],32 µg/mL
same,MIC,[21],32 µg/mL
same,MIC,[22],16 µg/mL
same,MIC,[23],64 µg/mL
same,MIC,[24],2 µg/mL
same,MIC,[25],0.016 µg/mL
same,zone of inhibition at 10 µg/disc,[26],6 mm
same,MIC,[27],64 µg/mL
